Measured values from patent publication US4927975A, “Process for preparing certain decahydro-7H-3-ol-7-ones” (Roussel Uclaf, priority 1981, dated 1990).

Key:
[1] = tested on: costovertebral organ of hamsters; assay: Costovertebral organ study repeated with female hamsters (antiandrogenic activity, topical); type: in vivo; settings: for inhibition of the weight increase of the organ: right costovertebral organ, topical 5 mg/day
Description: (§1) Male golden hamsters weighing 100 to 110 g castrated 7 days earlier received a subcutaneous injection of 125 μg per day and per animal of testosterone propionate in 0.2 ml of a sesame oil solution containing 0.5% of benzyl alcohol. One group of animals received also a treatment by topical application of an ethanol solution of the test compound on the right costovertebral organ and the left costovertebral organ received only ethanol. The treatment lasted for 8 days and 24 hours after the last, the costovertebral organs and the prostate were removed and weighed.
The study was repeated with female hamsters to test the antiandrogenic activity of the compounds of Examples 7 and 13 at a dose of 5 mg/day and the results are reported in Table III.
The test was repeated on female hamsters to determine the antiandrogenic activity of the compounds of Examples 13 to 17 at 1 mg/day and the results are reported in Table IV.

[2] = tested on: costovertebral organ of hamsters; assay: In vivo study with costovertebral organ of hamsters (male, castrated, testosterone propionate-treated, topical test product); parameters: species or system Male golden hamsters; settings: for Control Gland in mg / Treated Gland in mg: Table II, 8 days; for Control Gland in mg: left costovertebral organ (ethanol only), testosterone propionate s.c. alone or + product B 1 mg/day; for Treated Gland in mg: testosterone propionate s.c. alone or + product B 1 mg/day topical
Description: (§2) B. In vivo study with costovertebral organ of hamsters
as §1

[3] = tested on: prostate; assay: In vivo study with hamsters: prostate weight (male, castrated, testosterone propionate-treated, topical test product); parameters: species or system Male golden hamsters; settings: for Prostate in mg: Table II, testosterone propionate s.c. alone or + product B 1 mg/day topical, 8 days
Description: as §2, §1

[4] = tested on: male mice; assay: Acute toxicity in male mice; type: in vivo; settings: 7th day
Description: Five male mice weighing 18 to 20 g received an intraperitoneal or oral administration of decreasing doses of product B in aqueous solution containing 0.25% of carboxymethyl cellulose and 0.2% of Tween at 1000, 600 or 400 mg/kg and the number of dead mice was determined on the 7th day. The DLo or the more elevated dose at which no mortality was observed was determined to be 400 mg/kg intraperitoneally and 1000 mg/kg orally for product B.

[5] = Table III, testosterone propionate alone or + product 5 mg/day
[6] = Table III, testosterone propionate alone or + product 5 mg/day topical
[7] = Table IV, testosterone propionate alone or + product 1 mg/day
[8] = Table IV, testosterone propionate alone or + product 1 mg/day topical

SMILES | Control Gland in mg [1, 5] | Treated Gland in mg [1, 6] | inhibition of the weight increase of the organ [1] [%] | % inhibition of weight increase ([1]; Table IV, 1 mg/day topical) [%] | Control Gland in mg [1, 7] | Treated Gland in mg [1, 8] | Control Gland in mg [2] | Treated Gland in mg ([2]; right costovertebral organ) | antagonism of the effect of testosterone propionate on the untreated gland ([2]; left (untreated) gland, product applied locally to right costovertebral organ) | inhibition in the weight increase of the organ ([2]; right costovertebral organ, male hamsters, topical 1 mg/day) [%] | Prostate in mg [3] | systemic effect ([3]; inferred from untreated gland and prostate after local application) | antagonism of the effect of testosterone propionate on the prostate ([3]; product applied locally to right costovertebral organ) | DLo (more elevated dose at which no mortality was observed) ([4]; intraperitoneal) [mg/kg] | DLo (more elevated dose at which no mortality was observed) ([4]; oral) [mg/kg]
CCCC(=O)O[C@H]1CCC2C3CCC(=O)C(CC)=C3CC[C@@]21C (stereo partly shown) [Example 7, Butanoate of 3aβ-methyl-6-ethyl-7-oxo-1,2,3,3a,4,5,8,9,9a,9b-decahydro-1H-benz(e)-inden-3-yl] | 9,5 ± 0,8 mg | 4,5 ± 0,4 mg | 90 | – | – | – | – | – | – | – | – | – | – | – | –
CCC1=C2CC[C@@]3(C)C(CC[C@@H]3OC(C)=O)C2CCC1=O (stereo partly drawn) [Example 13, 3β-acetoxy-3aβ-methyl-6-ethyl-1,2,3,3a,4,5,8,9,9a,9b-decahydro-7H-benz(e)-inden-7-one] | 10,8 ± 2,1 mg | 3,9 ± 0,4 mg | 95.6 | 61 | 9,9 ± 1,6 mg | 6,0 ± 0,2 mg | – | – | – | – | – | – | – | – | –
CCC1=C2CC[C@@]3(C)C(CC[C@@H]3O)C2CCC1=O (stereo partly drawn) [Product B, 3aβ-methyl-6-ethyl-1,2,3,3a,4,5,8,9,9a,9b-decahydro-7-H-benz(e)-inden-3β-ol-7-one] | – | – | – | – | – | – | 41,8 ± 5,2 mg | 17,1 ± 2,2 mg | did not antagonize the effect of testosterone propionate on the untreated gland | 61 | 80,1 ± 9,3 mg | does not have a systemic effect | did not antagonize the effect of testosterone propionate on the untreated gland or the prostate | 400 | 1000
CCC(=O)O[C@H]1CC[C@H]2[C@@H]3CCC4=CC(=O)CC[C@]4(C)[C@H]3CC[C@]12C [Testosterone Propionate, testosterone propionate, reference compound] | 15,8 ± 1,0 mg | 14,9 ± 1,1 mg | – | – | 11,0 ± 2,0 mg | 10,2 ± 0,6 mg | 35,8 ± 5,0 mg | 33,91 ± 2,9 mg | – | – | 79,5 ± 5,5 mg | – | – | – | –
